In patent publication US20130158041A1, “Tyrosine Kinase Inhibitors” (priority 2010, published 2013):

system: HGF-dependent scattering phenotype of HPAF-II cells; experiment: HPAF scatter assay; assay type: cell-based; conditions: Homo sapiens, 4 ng/ml HGF, 22 hrs, read-out: inhibitory activity (IC50), scattering phenotype
Experimental: The ability of compounds to inhibit the HGF-dependent scattering phenotype of HPAF-II cells was measured using a modified version of the assay described by Chan et al. 2008 (Chan et al. J. Biomolec. Screening 2008; 13:847-854). Briefly, HPAF-II cells (ATCC #CRL1997) were plated in 50 uL DMEM (#11995)+10% FBS+P/S at a density of 3,000 cells/well in Costar black clear bottom 384-well plates [Product no. 3712] and incubated at 37° C. overnight. The next day, […] of serially diluted compound in DMSO was added to each well in the cell plate to give a nine-point 1:3 dilution series with final concentrations ranging from 20 uM to 3 nM. Cells were preincubated with compound at 37° C. for one hour. To stimulate the scattering phenotype, 10 uL of 24 ng/ml HGF (R&D Systems 294-HGN) was next added to each well, giving a final concentration of 4 ng/ml HGF. Cells were incubated with both compound and HGF at 37° C. for an additional 22 hrs. Control […] wells without compound treatment and control wells without HGF or compound were included on each plate. Next, to visualize the cells, each plate was washed in PBS 1×, fixed in ice cold methanol for 3 min at RT, washed in PBS 3×, stained with Hoechst (1:2500) in PBS/0.1% Triton for 15 min in the dark, and finally washed in PBS 4× before imaging on an INCell Analyzer 1000 (GE Healthcare). Individual cell by cell SOI internuclear distance information was exported and then processed using a Pipeline Pilot (Accelrys) protocol to calculate the percentage of scattered cells. The percent inhibition of the scattering phenotype was calculated relative to cells without compound treatment, plotted against the log of compound concentration and then fit to a four parameter logistic fit to obtain IC50 values.

IC50, 15 to 550 nM:
COCCOC(=O)Nc1cccc(Cc2nn(-c3cnn(C)c3)ccc2=S)c1 [Example 8, 2-methoxyethyl (3-{[1-(1-methyl-1H-pyrazol-4-yl)-4-thioxo-1,4-dihydropyridazin-3-yl]methyl}phenyl)carbamate]
CCOc1cnc2ccc(OCc3nn(-c4cnn(C)c4)ccc3=S)cc2c1 [Example 19, 3-{[(3-Ethoxyquinolin-6-yl)oxy]methyl}-1-(1-methyl-1H-pyrazol-4-yl)pyridazin-4(1H)-thione]
Cn1cc(-c2cnc3ccc(OCc4nn(-c5cnn(C)c5)ccc4=S)cc3c2)cn1 [Example 21, 1-(1-methyl-1H-pyrazol-4-yl)-3-({[3-(1-methyl-1H-pyrazol-4-yl)quinolin-6-yl]oxy}methyl)pyridazin-4(1H)-thione]
COCCOc1cnc(-c2cccc(Cc3nn(-c4cnn(C)c4)ccc3=S)c2)nc1 [Example 3, 3-{3-[5-(2-methoxyethoxy)pyrimidin-2-yl]benzyl}-1-(1-methyl-1H-pyrazol-4-yl)pyridazin-4(1H)-thione]
CCCn1cnc(-c2cccc(Cc3nn(-c4cnn(CC)c4)ccc3=S)c2)n1 [Example 5, 1-(1-ethyl-1H-pyrazol-4-yl)-3-[3-(1-propyl-1H-1,2,4-triazol-3-yl)benzyl]pyridazin-4(1H)-thione]
